Reference: a melting point compilation (Tetko et al.; mined from patent text by program, amines drawn as free bases though some values may be those of a salt)

Row | Structure (SMILES) | melting point [°C]
1 | Cn1cc(Cc2ccccc2)c(=O)c(-c2cccc(C(F)(F)F)c2)c1 | 98 to 100
2 | CCCCCCCCCCCCc1ccc(NC(C)=O)c([N+](=O)[O-])c1 | 71 to 73
3 | CCOC(=O)C(Cc1cc(C)cc(OC(F)(F)C(F)F)c1)C(=O)c1ccc(F)cc1 (configuration not stated) | 56 to 57
4 | CCCCN1CCC(O)(c2cccc(C(F)(F)F)c2F)CC1 | 138
5 | Nc1cnc2ccc(C(F)(F)F)cc2c1-c1ccccc1 | 107 to 108
6 | Cn1c(=O)c2nc(-c3ccc(/C=C/C(=O)O)cc3)[nH]c2n(Cc2ccc(C#N)cc2)c1=O | > 350
7 | CCOC(=O)c1cn2c(ccc3ccc(Cl)cc32)n1 | 221 to 222
8 | CCc1c(-c2ccc(OCc3ccccc3)cc2)c2cc(C(C)=O)c3ccc(OCc4ccccc4)c1n32 | 147 to 149
9 | Cc1ccc2[nH]c(=O)cc(CCCl)c2c1 | 215 to 216
10 | COc1ccc(/C=C/CCCCOc2ccc(C(=O)CCCC(=O)O)cc2CCC(=O)O)cc1 | 113 to 114
11 | COc1ccc(CN(C(=O)C2CCCc3c(O)cccc32)c2ccc(C(C)C)cc2)c(OC)n1 (configuration not stated) | 190
12 | O=c1[nH]c(=O)n(CCO)c2ccccc12 | 274
13 | Cc1ccc(C2CCCN2S(=O)(=O)c2ccc(F)cc2)cc1 (racemic) | 112
14 | CC[C@H]1CN(c2c(F)cc3c(=O)c(C(=O)O)cn([C@@H]4C[C@@H]4F)c3c2OC)C[C@H]1NC | 143 to 145
15 | CN(CCc1ccc([N+](=O)[O-])cc1)Cc1nc2ccc([N+](=O)[O-])cc2o1 | 69 to 69.5
16 | CCOc1cc([N+](=O)[O-])ccc1C(O)c1cc(C)ccn1 (configuration not stated) | 114 to 115
17 | CCCCn1cc(C(=O)OCC)c(NC(=O)Nc2ccccc2)n1 | 118 to 120
18 | CCc1cc(C(=O)OC)nn1C | 188 to 191
19 | CCOC(=O)C=CC(=O)c1ccc(-c2ccc(F)cc2)cc1 | 115 to 117
20 | N#Cc1cn(Nc2c(Cl)cc(Cl)cc2Cl)c(=O)[nH]c1=O | > 320
21 | Fc1cccc(COc2ccc(I)cc2)c1 | 48
22 | COc1ccc(OCc2ccc(OCc3nc(-c4ccccc4)oc3C)cc2)c(CC(=O)O)c1 | 134 to 136
23 | CC(CCO)N1CCC(Cc2ccccc2)CC1 (configuration not stated) | 74 to 76
24 | O=C(O)c1csc(-c2ncccc2O)n1 | > 300

Row | Structure (SMILES) | melting point [°C]
25 | CCCC(=O)c1cnc2c(OC)cccc2c1Nc1c(C)cc(O)cc1C | 247 to 248
26 | CS(=O)(=O)Nc1ccc(OCCBr)c(Cl)c1 | 96 to 98
27 | COc1cc(-c2ccc(Br)cc2)oc1-c1ccc(Br)cc1 | 112 to 113
28 | COc1cc(Cl)cnc1N | 93 to 94
29 | O=S1(=O)c2ccccc2Nc2c1c(O)c(O)c1ccccc21 | 330
30 | CC(=O)Nc1cccc2c1C(=O)c1ccccc1C2=O | 221
31 | CCCCSc1cc([N+](=O)[O-])cc(C(O)=NC)c1C(=O)O | 106 to 108
32 | COc1ccc(-c2nc(C(=O)O)c[nH]2)cc1OC1CCCC1 | 206 to 208
33 | CC1Cc2ccc(Cl)cc2C(c2ccc([N+](=O)[O-])cc2)=NN1C(=O)C(F)(F)F (configuration not stated) | 150 to 152
34 | CC1(C)CSc2c(-c3ccccc3)c(-c3ccc(Cl)cc3)cn2C1 | 147 to 148
35 | COc1nc(C)cnc1NS(=O)(=O)c1cccnc1-c1ccc(CCC(=O)O)cc1 | 166 to 168
36 | Cc1ccccc1C(=O)CN1C(=O)C(NC(=O)Nc2cccc(C(=O)NO)c2)CN(C(=O)C(C)(C)C)c2ccccc21 (configuration not stated) | 192 to 196
37 | Cc1cc([N+](=O)[O-])ccc1NC(=O)C1=C(O)N(C)S(=O)(=O)c2cscc21 | 186 to 188
38 | O=S(=O)(c1ccccc1)n1nc(-c2ccncc2)nc1-c1ccncc1 | 210 to 212
39 | CN(CCN1CCN(Cc2ccc(C(F)(F)F)cc2)CC1)C[C@@]1(C)Cn2cc([N+](=O)[O-])nc2O1 | 102 to 104
40 | N#Cc1ccc2c(O)c(C(=O)NCCCCN3CCN(C(c4ccccc4)c4ccccc4)CC3)cnc2c1 | 223 to 225
41 | O=C(NS(=O)(=O)C(F)(F)F)c1cccc([N+](=O)[O-])c1 | 80 to 83
42 | CCc1ccc2nc(C)[nH]c2c1N1CC(CI)OC1=O (configuration not stated) | 143 to 144
43 | COc1ccc(-c2nc(C(F)(F)F)[nH]c2-c2ccc(S(C)(=O)=O)cc2)cc1F | 228 to 234
44 | Cn1ncc2c1-c1c(Nc3ccccc3)sc(C(N)=O)c1CC2 | 140 to 141
45 | O=C(O)CCCCCc1nc2ccccc2n1-c1ccccc1 | 132 to 133
46 | O=C(Nc1cccc2cc(CO)cnc12)c1c(Cl)cccc1Cl | 224 to 226
47 | CN(C)Cc1ccc(CSCCNC2=NS(=O)N=C2N)o1 (configuration not stated) | 139 to 142
48 | CCc1c(N)c(C(N)=O)nn1CCN1CCOCC1 | 152 to 153

Row | Structure (SMILES) | melting point [°C]
49 | CC(C)c1cccc(C(C)C)c1NC(=O)CNCC1(Nc2ccccc2)CCCCC1 | 104 to 106
50 | OC1CSC(Oc2ccc(-c3cncnc3)cc2)C(O)C1O (configuration not stated) | 196 to 200
51 | Cn1c(=O)[nH]c2nc3ccc(OCCCC(=O)O)cc3cc21 | 286 to 288
52 | N#Cc1cc2c(cc1F)OCC21C(=O)N(Cc2ccccc2C(F)(F)F)c2ccccc21 (configuration not stated) | 193 to 195
53 | Cc1cc(-c2ccc(C(F)(F)F)cc2)cc(-c2nc(-c3cccc(S(N)(=O)=O)c3)cs2)n1 | > 250
54 | CC(C)Cc1ccc(C(C)COC(=O)c2cc(O)c3c(c2)C(=O)c2cccc(O)c2C3=O)cc1 (configuration not stated) | 115
55 | COCCn1nc2ccccc2c1C(=O)NCC1CCN(CCc2ccccc2F)CC1 | 128 to 130
56 | O=C(CCCC(Cl)=C(C(=O)O)c1csc(NC(=O)OCc2ccccc2)n1)OCc1ccccc1 | 146 to 147
57 | Oc1cccc(C2=CCCN(CCc3ccccc3)C2)c1 | 155
58 | COC(=O)CC(C#Cc1cccc(-c2nc(C)no2)c1)c1ccc(OC)c(OC2CCCC2)c1 (racemic) | 66 to 68.5
59 | CC(=O)NCC(=O)c1cccc(Cl)c1Cl | 107 to 109
60 | O=C1C(=O)N(Cc2ccc(Nc3ncccn3)cc2)CCN1Cc1ccc(Nc2ncccn2)cc1 | 226 to 228
61 | CN1CCC(c2cccc(F)c2)(C(C)(C)O)CC1 | 158 to 159
62 | CCCCCNc1ncnc2c(C)n[nH]c12 | 158
63 | O=C(NC1N=C(c2ccccc2F)c2ccccc2NC1=O)c1ccsc1 (racemic) | 238 to 239
64 | CC(C)(C)C(=O)C(CCCCOc1ccccc1)n1cncn1 (configuration not stated) | 59 to 62
65 | CC1(C)C2CCC1(C)C(O)(c1ccccn1)C2 (configuration not stated) | 60 to 61
66 | CC1(C)OC(=S)Nc2ccc(-c3cccc(Cl)c3)cc21 | 183 to 184
67 | COc1ccc(/C(=C\C=C\C(=O)O)c2ccccc2OC)cc1 | 159 to 161
68 | CCn1c2c(c3ccccc31)CCSC2(C)CCN(C)C (configuration not stated) | 86 to 88
69 | O=C(c1cccs1)c1cnn2c(-c3cccc(NCc4ccccc4)c3)ccnc12 | 90 to 92
70 | CC1(C)CC(=O)c2c(NCc3ccccc3)sc(-c3cc[nH]n3)c2C1 | 204 to 206
71 | COc1ccc2c(c1)c(CC(C)NC(=O)C(F)(F)F)c1n2CCC1 (racemic) | 131 to 133
72 | CN1CC(c2ccno2)CC2c3cccc4[nH]cc(c34)CC21 (configuration not stated) | 132 to 134
